Results on seven molecules are retold here after patent US20080118573A1, “Use of Heavy Metals in the Treatment of Biofilms” (priority 2004, published 2008).

What all share (type): cell-based
For assay [1], the system named is Pseudomonas aeruginosa ATCC 27853 planktonic and biofilm bacteria. Briefly: MBEC-HTP antibiotic susceptibility, P. aeruginosa. The settings on record: for MBEC: P. aeruginosa ATCC 27853 biofilm. The method, then:
(§1) Luria-Bertani medium was chosen for two reasons: 1) its established use in studies of metal resistance, and 2) because of the use of rich media in NCCLS testing protocols for antimicrobial resistance. Antibiotic resistance assays were performed using cation-adjusted Mueller-Hinton broth (CA-MHB, BDH Inc.) and subcultures, MBC and MBEC bacterial counts were performed using trypticase soy agar (TSA, Difco).
(§2) The present study used a novel high throughput method for screening biofilm susceptibility to metal cations and oxyanions: the MBEC device (MBEC Bioproducts Inc., Edmonton, Alberta, Canada, http://www.mbec.ca). The MBEC high throughput (MBEC-HTP) assay system consists of a shallow trough into which a plastic lid with 96 pegs fits. This peg lid also fits over a standard 96-well microtitre plate which can subsequently be used to setup serial dilutions of antimicrobial compounds. The bottom half of the MBEC device is a trough that has shallow channels that direct flow of an inoculated suspension over the pegs on the lid.
(§3) The inoculum was standardized to a 1.0 McFarland standard and verified by viable counts. The 1.0 McFarland standard inoculum was diluted 30-fold with growth media, which served as the growth suspension to inoculate the MBECJ device.
(§4) P. aeruginosa was incubated for 9 h, S. aureus for 24 h and E. coli for 24 h to generate approximately equivalent biofilms of 6.0×10^6 cfu/peg. Following the incubation period, growth of biofilm and planktonic cultures in the MBECJ device were discerned and verified by viable cell counts.
(§5) Chloramphenicol (Sigma) was prepared in 50% ethanol and treated identically to the other antibiotics. 10% ethanol was added to the growth controls for chloramphenicol assays. […] Starting with the working solutions, serial two-fold dilutions were made in the wells of a 96-well plate (the challenge plate), leaving the first well of each row as a sterility control and the second as a growth control (i.e. no antibiotic).

Assay [2] deals with Staphylococcus aureus ATCC 29213 planktonic and biofilm bacteria. Briefly: MBEC-HTP antibiotic susceptibility, S. aureus. The settings on record: CA-MHB, 24 h exposure; for MIC: S. aureus ATCC 29213; for MBEC: S. aureus ATCC 29213 biofilm; for MBC: S. aureus ATCC 29213 planktonic. The method, then:
as §1, §2, §3, §4, §5

Assay [3] deals with Pseudomonas aeruginosa biofilms. Briefly: Metal and antibiotic combination assay. The settings on record: for MBC / MIC / MBEC: median of 4 replicates. The method, then:
Cells were grown to a mean density of 6.0×10^6 cfu/peg in LB+B1 media.
• 1. […] All data are median values based on 4 replicates.

Assay [4] has as its system Pseudomonas aeruginosa ATCC 27853 planktonic and biofilm cultures. The settings on record: for Fold Tolerance (MBEC:MBC100) / MBEC / MBC100: LB+B1; for MBEC: biofilm; for MBC100: planktonic; for MIC: rich media (LB+B1), 4 replicates.
Assay [5] relates to Pseudomonas aeruginosa ATCC 27853 cell populations. The settings on record: 27 hours exposure.
Assay [6] deals with Pseudomonas aeruginosa ATCC 27853 planktonic and biofilm cultures. The settings on record: for Fold Tolerance (MBEC:MBC100) / MBEC / MBC100: MSVP; for MBEC: biofilm; for MIC: minimal media (MSVP), did not change with exposure time, mean ± SD of 28 trials; for MBC100: planktonic.
Assay [7] has as its system Escherichia coli JM109 planktonic and biofilm bacteria. Briefly: MBEC-HTP antibiotic susceptibility, E. coli. The settings on record: for MBEC: E. coli JM109 biofilm. The procedure: as §1, §2, §3, §4, §5
The mark [8] stands for this setting: antibiotic in combination with 500 μg/ml Zn^2+.
Where [9] appears, read: antibiotic or heavy metal alone, LB+B1.
Where [10] appears, read: Pseudomonas aeruginosa, ATCC27853, 24 h.
The mark [11] stands for this setting: Pseudomonas aeruginosa, ATCC27853, P. aeruginosa ATCC 27853, CA-MHB, 24 h exposure, read-out: MIC.
Where [12] appears, read: Pseudomonas aeruginosa, ATCC27853, P. aeruginosa ATCC 27853 planktonic, CA-MHB, 24 h exposure, read-out: MBC.

≈ marks a conversion by molar mass, not a printed value. Read-outs that look alike come from different tables or passages of the source.

On to Gentamicin, for which the MIC is 10 ± 4 µg/mL in assay [1] (P. aeruginosa ATCC 27853, CA-MHB, 24 h exposure); less than 2 µg/mL in assay [2]; 64 µg/mL in assay [3] (setting [8]); 8 µg/mL in assay [3] (setting [9]). Further, the MBEC in assay [1] (CA-MHB, 24 h exposure) is more than 1024 µg/mL; in assay [2], 3.5 ± 1 µg/mL; in assay [3] (setting [9]) it was more than 1024 µg/mL. In addition, the MBC in assay [1] (P. aeruginosa ATCC 27853 planktonic, CA-MHB, 24 h exposure) was 28 ± 8 µg/mL; in assay [2] it was 4 ± 0 µg/mL; in assay [3] (setting [8]), 128 µg/mL; in assay [3] (setting [9]), 32 µg/mL.
For lead nitrate [Pb^2+], the “Fold Tolerance (MBEC:MBC100)” value was 0.7 in assay [4] (exposure time 27 h); 4.0 in assay [6] (exposure time 2 to 4 h); 3.0 in assay [6] (exposure time 6 h); 4.9 in assay [6] (exposure time 8 h); 3.0 in assay [6] (exposure time 10 h); 1.6 in assay [6] (exposure time 27 h). Besides, the MBEC in assay [4] (exposure time 2 h) is more than 40 mM; in assay [4] (exposure time 27 h), 59 ± 23 mM; in assay [6] (exposure time 2 to 4 h), “≧79 mM”; in assay [6] (exposure time 6 h), “≧79 mM”; in assay [6] (exposure time 8 h), 59 ± 23 mM; in assay [6] (exposure time 10 h), 59 ± 23 mM. In addition, the MBEC in assay [6] (exposure time 27 h) was 26 ± 15 mM. Also, the MBC100 was more than 40 mM in assay [4] (exposure time 2 h); 20 ± 0 mM in assay [6] (exposure time 2 to 4 h); 30 ± 11 mM in assay [6] (exposure time 6 h); 12 ± 5 mM in assay [6] (exposure time 8 h); 20 ± 0 mM in assay [6] (exposure time 10 h); 16 ± 6 mM in assay [6] (exposure time 27 h). Moreover, the MIC was determined as 12 ± 5 mM in assay [4] and 1.2 ± 0 mM in assay [6]. For the same molecule, the “eradication of the biofilm cultures with extended exposure times” value in assay [5] is reported as “complete eradication”.
As to `CC1(C)S[C@@H]2[C@H](NC(=O)[C@H](N)c3ccccc3)C(=O)N2[C@H]1C(=O)O` [Ampicillin], the MBEC was more than 512 µg/mL in assay [1] (CA-MHB, 24 h exposure) and 1024 ± 0 µg/mL in assay [7] (CA-MHB, 24 h exposure). Also, the MBC in assay [1] (setting [10]) was more than 512 µg/mL; in assay [7] (Escherichia coli, 24 h), 64 µg/mL (≈ 183 µM). Further, the MIC was more than 512 µg/mL in assay [1] (setting [10]) and 4 µg/mL (≈ 11.4 µM) in assay [7] (Escherichia coli, 24 h).
On to `NCC[C@H](O)C(=O)N[C@@H]1C[C@H](N)[C@@H](O[C@H]2O[C@H](CN)[C@@H](O)[C@H](O)[C@H]2O)[C@H](O)[C@H]1O[C@H]1O[C@H](CO)[C@@H](O)[C@H](N)[C@H]1O` [Amikacin], for which the MBEC in assay [1] (CA-MHB, 24 h exposure) is more than 512 µg/mL; in assay [3] (antibiotic in combination with 200 μg/ml Cu^2+), more than 64 µg/mL; in assay [3] (setting [9]), more than 512 µg/mL. Moreover, the MIC was 32 µg/mL (≈ 54.6 µM) in assay [1] (setting [11]); 0.125 µg/mL in assay [3] (Pseudomonas aeruginosa, antibiotic in combination with 200 μg/ml Cu^2+, read-out: MIC); 32 µg/mL in assay [3] (Pseudomonas aeruginosa, antibiotic or heavy metal alone, LB+B1, read-out: MIC). For the same molecule, the MBC in assay [1] (setting [12]) is 224 ± 64 µg/mL (≈ 383 µM); in assay [3] (Pseudomonas aeruginosa, antibiotic in combination with 200 μg/ml Cu^2+, read-out: MBC), more than 64 µg/mL; in assay [3] (Pseudomonas aeruginosa, antibiotic or heavy metal alone, LB+B1, read-out: MBC), 256 µg/mL. In addition, in assay [3] (200 μg/ml Cu^2+), the “MIC in the presence of Cu^2+, times less than the MIC for the antibiotic alone” value is on record as 256 times.
For the molecule `CCN1CCN(C(=O)N[C@@H](C(=O)N[C@@H]2C(=O)N3[C@@H]2SC(C)(C)[C@@H]3C(=O)O)c2ccccc2)C(=O)C1=O` [Pipperacillin, Piperacillin], the MIC in assay [7] (E. coli JM109, CA-MHB, 24 h exposure) came out at 4 ± 0 µg/mL (≈ 7.73 µM). The MBEC in assay [7] (CA-MHB, 24 h exposure) was 32 ± 0 µg/mL. The molecule also came in with an MBC in assay [7] (E. coli JM109 planktonic, CA-MHB, 24 h exposure) of 16 ± 0 µg/mL (≈ 30.9 µM).
For `O=C(N[C@H](CO)[C@H](O)c1ccc([N+](=O)[O-])cc1)C(Cl)Cl` [Chloramphenicol], the MBEC was more than 512 µg/mL in assay [1] (CA-MHB, 24 h exposure); more than 1024 µg/mL in assay [2]; more than 256 µg/mL in assay [7] (CA-MHB, 24 h exposure). The MIC in assay [1] (setting [11]) is more than 512 µg/mL; in assay [2] (Staphylococcus aureus, ATCC29213, read-out: MIC) it was 80 ± 32 µg/mL (≈ 248 µM); in assay [7] (Escherichia coli, E. coli JM109, CA-MHB, 24 h exposure, read-out: MIC), 3.5 ± 1 µg/mL (≈ 10.8 µM). Moreover, the MBC in assay [1] (setting [12]) is more than 512 µg/mL; in assay [2] (Staphylococcus aureus, ATCC29213, read-out: MBC) it was 1020 µg/mL (≈ 3170 µM); in assay [7] (Escherichia coli, E. coli JM109 planktonic, CA-MHB, 24 h exposure, read-out: MBC), 128 µg/mL (≈ 396 µM).
Turning to `[Cl-].[Cl-].[Co+2]` [Co^2+, cobalt (II) chloride], the “Fold Tolerance (MBEC:MBC100)” value is reported as 2.7 in assay [4] (exposure time 2 h); 2.0 in assay [4] (exposure time 27 h); 2.0 in assay [6] (exposure time 2 to 6 h); “at least 2” in assay [6] (exposure time 2 h); 1.3 in assay [6] (exposure time 8 h); 1.2 in assay [6] (exposure time 10 h). The “Fold Tolerance (MBEC:MBC100)” value in assay [6] (exposure time 27 h) was found to be 1.0. For the same molecule, the MBEC result in assay [4] (exposure time 2 h) is “≧280 mM”; in assay [4] (exposure time 27 h), “≧280 mM”; in assay [6] (exposure time 2 to 6 h), “≧278 mM”; in assay [6] (exposure time 8 h) it was 139 ± 0 mM; in assay [6] (exposure time 10 h), 209 ± 80 mM; in assay [6] (exposure time 27 h) it was 116 ± 36 mM. For the same molecule, the MBC100 in assay [4] (exposure time 2 h) turned out to be 104 ± 40 mM; in assay [4] (exposure time 27 h), 140 ± 0 mM; in assay [6] (exposure time 2 to 6 h) it was 139 ± 0 mM; in assay [6] (exposure time 8 h), 104 ± 40 mM; in assay [6] (exposure time 10 h) it was 174 ± 70 mM; in assay [6] (exposure time 27 h), 114 ± 44 mM. The MIC came out at 7.6 ± 2.2 mM in assay [4] and 2.0 ± 0.8 mM in assay [6]. For the same molecule, the “eradication of the biofilm cultures with extended exposure times” value in assay [5] is listed as “complete eradication”.
